Legend:
Format in all cases: cell-based
[1] = system: human lung fibroblast CCD8-Lu cells; assay: Western blotting of CTGF expression (FIG. 6); details: western blotting (FIG. 6), 5 μg mitochondria, 18 hours after 6 hours 2.5 ng/mL TGF-β
Method: In order to observe whether the expression of CTGF, a key gene for fibrosis, is regulated by mesenchymal stem cell-derived mitochondria, a cell-based analysis experiment was performed using a Western analysis method.
CCD8-Lu cells (FIG. 6A) and Wi-38 cells (FIG. 6B), which are human lung-derived fibroblasts, were cultured in DMEM medium containing 10% FBS. The cells were inoculated into a 6 well plate at about 2×10^5 cells/well and cultured for 24 hours, and then depletion conditions were performed in DMEM medium without FBS for about 24 hours.
After 24 hours, the cells were treated with TGF-β at a concentration of 2.5 ng/mL, and then fibrosis of the cells was induced for 6 hours. After 6 hours, the cells were washed twice with PBS to completely remove TGF-β. Next, in the same manner as in Preparation Example 1, the mitochondria isolated from UC-MSC and HEK293 cells were mixed in DMEM medium, and the cells were treated with the mitochondria and then further cultured for 18 hours (FIG. 3). […]
The separated supernatant was obtained and transferred to a new microtube, and then protein was quantified using the BCA analysis method. […]

[2] = system: human lung fibroblast Wi-38 cells; assay: Quantitative real-time PCR of fibrosis genes in TGF-β-treated Wi-38 fibroblasts; details: qRT-PCR, 10 μg mitochondria or 1 μM nintedanib, 18 hours after 6 hours TGF-β
Method: (§1) In order to analyze the anti-fibrotic activity of mitochondria, a cell-based analysis experiment was performed using a quantitative real-time polymerase chain reaction.
(§2) CCD8-Lu cells and Wi-38 cells, which are human lung-derived fibroblasts, were cultured in DMEM medium containing 10% FBS, respectively. The cells were inoculated into a 6 well plate at about 2×10^5 cells/well and cultured for 24 hours, and then depletion conditions were performed in DMEM medium without FBS for about 24 hours. After 24 hours, the cells were treated with TGF-β at a concentration of 2.5 ng/mL, and then fibrosis of the cells was induced for 6 hours. After 6 hours, the cells were washed twice with PBS to completely remove the remaining TGF-β. Next, the mitochondria isolated from HEK293, UC-MSC and BM-MSC cells in Preparation Example 1 were mixed in DMEM medium, and the cells were treated with the mitochondria and then further cultured for 18 hours (FIG. 1). […]
(§3) After 18 hours of mitochondria treatment, the culture solution was removed, and the cells were washed twice with a PBS buffer solution, and 0.5 mL of RNA extract (Trizol reagent, Thermo Fisher Scientific) was added directly and then stood at ambient temperature for 10 minutes. […] After drying, about 50 μl of purified RNAase-free distilled water was added, and the quantity and purity of the obtained RNA was measured using a spectrophotometer. […]

[3] = system: human lung fibroblast CCD8-Lu cells; assay: Quantitative real-time PCR of fibrosis genes in TGF-β-treated CCD8-Lu fibroblasts; details: qRT-PCR, 10 μg mitochondria or 1 μM nintedanib, 18 hours after 6 hours TGF-β
Method: as §1
as §2, with “1). At this time, the negative control group was not treated with anything, the positive control group was treated with TGF-β alone at a concentration of 5 ng/mL, and the experimental groups were treated with 10 μg of mitochondria isolated from each cell, respectively.” for “1).”
as §3
Changes in the expression of the alpha actin smooth muscle (α-SMA) gene, a characteristic gene of myofibroblast, the CCN2 (or CTGF) gene, a characteristic gene of fibrosis, fibronectin, a characteristic gene of fibrosis, and the NOX-4 gene, a characteristic gene of fibrosis, were observed by quantitative real-time polymerase chain reaction. The GAPDH gene was quantified together to calibrate for differences in the expression.

[4] = system: human lung fibroblast CCD8-Lu cells; assay: Cell immunochemical staining of collagen 1A and fibronectin (FIG. 5); details: immunostaining (FIG. 5), 5 μg mitochondria or 1 mM pirfenidone, after 6 hours 2.5 ng/mL TGF-β
Method: In order to analyze the anti-fibrotic activity of stem cell-derived mitochondria, a cell-based analysis experiment was performed using a […].
CCD8-Lu cells, which are human lung-derived fibroblasts, were cultured in DMEM medium containing 10% FBS. Thereafter, the cells were inoculated into a 24 well plate at about 2×10^4 cells/well, cultured for 24 hours, and then reacted in DMEM medium without FBS for about 24 hours. After 24 hours, the cells were treated with TGF-β at a concentration of 2.5 ng/mL, and then fibrosis of the cells was induced for 6 hours. After 6 hours, the cells were washed twice with PBS to completely remove TGF-β. Next, the mitochondria isolated from umbilical cord blood mesenchymal stem cell UC-MSC, bone marrow mesenchymal stem cell BM-MSC, dedifferentiated stem cell iPSC and HEK293 cells obtained in Preparation Example 1 were mixed in DMEM medium, and the cells were treated with the mitochondria and then further cultured for 18 hours (FIG. 4). […]
Immunohistochemical analysis for each sample was performed as follows. […] The nucleus was stained using DAPI (4,6-diamidino-2-phenylindole), and analysis of differences in fluorescence intensity was performed using a fluorescence microscope.

SMILES: COC(=O)c1ccc2c(c1)NC(=O)/C2=C(\Nc1ccc(N(C)C(=O)CN2CCN(C)CC2)cc1)c1ccccc1 [nintedanib]
- expression of CTGF protein induced by TGF-β [1]: hardly inhibited
- expression of CTGF gene induced by TGF-β [2]: weakly inhibited or hardly inhibited
- expression of alpha actin smooth muscle (α-SMA) gene induced by TGF-β [2]: weakly inhibited or hardly inhibited
- expression of CTGF gene induced by TGF-β [3]: weakly inhibited or hardly inhibited
- expression of NOX-4 gene induced by TGF-β [3]: weakly inhibited or hardly inhibited
- expression of alpha actin smooth muscle (α-SMA) gene induced by TGF-β [3]: weakly inhibited or hardly inhibited

SMILES: Cc1ccc(=O)n(-c2ccccc2)c1 [pirfenidone]
- expression of collagen 1A induced by TGF-β (fluorescence intensity) [4]: weakly inhibited or hardly inhibited
- expression of fibronectin induced by TGF-β (fluorescence intensity) [4]: weakly inhibited or hardly inhibited

From patent US20230405052A1, “PHARMACEUTICAL COMPOSITION FOR PREVENTING OR TREATING FIBROSIS, COMPRISING ISOLATED MITOCHONDRIA” (Paean Biotechnology Inc., priority 2020, published 2023)
